Positions of bridges follow the written chain, without caps; N, C: chain ends. Residues, ends and D or L forms follow the SMILES beside them. Chains are numbered I, II in the order given. No end group written: not given here.
Tests used:
[1] = GUV image analysis, shape descriptors (light sheet fluorescence microscopy); conditions: [(treated GUVs − control GUVs)/control GUVs]*100
Excerpt: GUVs appear dark against the background as a consequence of the difference in refractive index of GUVs contents (sucrose solution) and the surrounding medium (glucose solution). A white halo appears around the vesicle. Formation of pores and of protuberances may be thus evidenced. GUVs appear under differential interference contrast (DIC) round shaped with an average smaller area compared to GUVs treated with gH625 (Table 5, Figure 8). […] The addition of gH625-H7 to GUVs produced a similar effect of gH625 with the only difference that it induces an enhancement of the GUVs fusion tendency (Figure 8). gH625 and gH625-H7 enhance the mean area and perimeter of GUVs (Figure 9A,C). […] Main shape descriptor analysis confirms that the addition of gH625 or gH625-H7 induces an increase in area and perimeter also indicating a decrease in circularity and roundness parameters (Table 5).
LUVs and SUVs for fluorescence,circular dichroism and surface plasmon resonance, consisting of DOPG, DOPG/Chol (60/40 mol/mol), DOPC/Chol (60/40 mol/mol), and when necessary containing Rho-PE and NBD-PE, or ANTS and DPX, were prepared in 5 mM HEPES, 100 mM NaCl, pH 7.4[66]. Aliquots containing the necessary amount of lipids were dried from a chloroform solution with a nitrogen gas stream and lyophilized overnight to produce dry lipid films which were then resuspended in buffer and vortexed for 1 h; the lipid suspension was freeze-thawed 6 times to obtain multilamellar vesicles (MLV). […] Lipid concentrations of liposome suspensions were determined by phosphate analysis. […]
GUVs were used upon one day from preparation. Ten microliters of fluorescent GUVs were analyzed (before and after the addition of gH625 or gH625-H7) under a custom made light sheet fluorescent microscope equipped with five laser lines (λ = 375 nm Coherent Cube, λ = 405 nm Coherent Cube, λ = 473 nm Laserworld Blue-200, λ = 532 nm Coherent Compass 215 M-10 DPSS laser and λ = 632.8 nm Thorlabs HRR005S Helium-Neon laser), a motorized microscope MS-2000 XY stage with LX-4000 controller (Applied Scientific Instrumentation), a Focus Drive motorized Z stage (Tofra Inc.) and Nano-F200S nanopositioner controlled by Nanodrive® controller (Mad City Labs); all devices were managed by MicroManager software. […] The emerging fluorescence was detected by the Orca flash 2.8 sCMOS camera (Hamamatsu) driven by Dalsa Xcelera (Teledyne DALSA) PCIe card mounted on AMD FX-8 core 3.5 GHz, 32 Gb RAM pc running Windows 8.1 (Microsoft). […] GUV parameters were calculated by the Analyze particles ImageJ plugin; a minimum size of 5 μm^2 and circularity of at least […] Circularity=4π×[Area]/[Perimeter]^2 with a value of 1.0 indicating a perfect circle) was considered. […]

[2] = Lipid mixing (NBD/Rho FRET membrane fusion); conditions: lipid 0.1 mM, 25 °C
Excerpt: In order to gain insight into the ability to interact and perturb the lipid membrane, nitrobenzoxadiazole (NBD) and Rhodamine (Rho) were used as the donor and acceptor of fluorescence energy transfer. Dilution of labelled vesicles caused by peptide induced membrane fusion, determines a larger average distance between fluorescent and quenching lipids and thus a reduction in the fluorescence energy transfer efficiency. […] The three peptides interact more strongly with LUVs containing cholesterol, confirming the preference for more rigid membranes.
Figure 1 Peptide-promoted membrane fusion as determined by lipid mixing of gH625 (A), gH625-H7 (B) and gH625-G7 (C) in LUVs composed of: DOPG, DOPG/Chol 60/40 (mol/mol) and DOPC/Chol 60/40 (mol/mol). […] Lipid concentration is 0.1 mM. […] Panel D reports the peptide-promoted membrane fusion of the three peptides in DOPG/Chol LUVs 60/40 (mol/mol).
A cut off filter at 515 nm was used.

| Compound | Var % circularity versus GUVs alone [1] | Var % roundness versus GUVs alone [1] | lipid mixing activity in DOPG LUVs ([2]; average of three experiments) | lipid mixing activity in DOPG/Chol LUVs ([2]; compared to the other peptides) |
| --- | --- | --- | --- | --- |
| CC[C@H](C)[C@H](NC(=O)[C@H](CC(C)C)NC(=O)[C@H](C)NC(=O)[C@H](CC(N)=O)NC(=O)[C@H](Cc1ccc(O)cc1)NC(=O)[C@H](Cc1c[nH]cn1)NC(=O)[C@H](C)NC(=O)[C@H](Cc1c[nH]c2ccccc12)NC(=O)[C@H](CCCNC(=N)N)NC(=O)[C@@H](NC(=O)[C@H](CC(C)C)NC(=O)[C@@H](NC(=O)[C@H](CO)NC(=O)[C@H](C)NC(=O)[C@H](CC(C)C)NC(=O)CNC(=O)[C@@H](N)Cc1c[nH]cn1)[C@@H](C)O)[C@@H](C)O)C(=O)N[C@@H](CCCNC(=N)N)C(=O)N[C@@H](C)C(=O)N[C@@H](Cc1ccccc1)C(N)=O [gH625] (H-HGLASTLTRWAHYNALIRAF-NH2) | −8.33% | −10.60% | less active than the other two | – |
| I: HGLASTLTRWAHYNALIRAFGCGKKKK-NH2 / II: HGLASTLTRWAHYNALIRAFGCGKKKK-NH2 (disulfide I:22-II:22) [gH625-H7] | −33.33% | −18.18% | – | significantly higher activity |

Source: PMC5572722, “Dimerization in tailoring uptake efficacy of the HSV-1 derived membranotropic peptide gH625” (Scientific Reports, 2017)
